assay: method code SF, from Hansch, C. & Leo, A. (1987). Log P database [Dataset]. Pomona College Medicinal Chemistry Project.; conditions: not given

Row | logP | Compound
1 | 1.59 | Cc1ccc(CO)cc1
2 | 2.51 | Cc1ccc(C(=O)c2ccncc2)cc1
3 | 3.06 | Cc1ccccc1C(O)c1ccccc1 (centres undefined)
4 | 2.73 | O=C(COc1ccccc1)Nc1ccccc1
5 | 2.24 | OCc1cccc(C(F)(F)F)c1
6 | 3.26 | O=[N+]([O-])c1ccc(N2CCCCC2)cc1
7 | 1.17 | COC(=O)c1ccc[nH]1
8 | 2.71 | c1ccc2c(c1)nnc1ccccc12
9 | 1.87 | CC1(C)Oc2c(O)cccc2C1=O
10 | 0.29 | CC(=O)N(c1ccccc1)S(C)(=O)=O
11 | 2.14 | CC(=O)C(=Cc1ccc(C)cc1)C(C)=O
12 | 3.61 | O=C(/C=C/c1ccccc1)Nc1ccccc1
13 | 5.53 | CCCCOC(=O)c1ccc(C(=O)OCCCC)cc1
14 | 0.96 | COc1ccc(C(=O)N(C)C)cc1
15 | 2.14 | CC(C)c1ccc(C(N)=O)cc1

Further lines, the molecule ahead of its results:

Row | Compound | logP
16 | O=C(Nc1ccccc1)C(F)(F)F | 2.21
17 | CC(=O)CF | -0.39
18 | [N-]=[N+]=Nc1ccccc1 | 2.59
19 | CCCCN(C)C | 1.7
20 | O=[N+]([O-])c1ccc2[nH]c(CCc3nc4cc([N+](=O)[O-])ccc4[nH]3)nc2c1 | 1.29
21 | CCCCCCCCN(CCCCCCCC)N=Cc1c2c(O)c3c(O)c(C)c4c(c3c1O)C(=O)C(C)(O/C=C\C(OC)C(C)C(OC(C)=O)C(C)C(O)C(C)C(O)C(C)/C=C\C=C(\C)C(=O)N2)O4 (centres undefined) | 3.6
22 | CCOP(=S)(OCC)Oc1ccc(SC)cc1C | 4.16
23 | CC#CC | 1.46
24 | COc1cc(C=O)ccc1OCCO | 0.58
25 | O=c1cnn([C@@H]2O[C@H](CO)[C@@H](O)[C@H]2O)c(=O)[nH]1 | -2.14
26 | NC(=O)C(=Cc1ccccc1)C(N)=O | -0.13
27 | CCCC(=O)Nc1ccc(Cl)c(Cl)c1 | 3.77
28 | OC(C1CO1)C(O)C1CO1 (centres undefined) | -1.29
29 | O=CNc1ccccc1 | 1.2
30 | O=C(Nc1ccccc1)c1ccc(C(=O)Nc2ccccc2)cc1 | 3.72
31 | CCC(C)=O | 0.5
32 | CCC=O | 0.59
33 | N#CN=[N+]([O-])c1ccc(C(F)(F)F)cc1 | 2.47
34 | CC(C)(O)C(Cl)(Cl)Cl | 2.03
35 | O=c1[nH]cc(I)c(=O)[nH]1 | 0.04
36 | C=C1C[C@]23C[C@@]1(O)CC[C@H]2[C@@]12C=C[C@H](O)[C@@](C)(C(=O)O1)[C@H]2[C@@H]3C(=O)O | 0.24
37 | ClC(Cl)(Cl)Sc1ccccc1 | 3.78
38 | COC1=C[C@@]23CCCN2CCc2cc4c(cc2[C@@H]3[C@@H]1O)OCO4 | 0.84
39 | CC(=O)OC1CCCC(NC(=O)N(CCF)N=O)C1 (centres undefined) | 1.33
40 | COc1cc2c(c(OC)c1OC)-c1ccc(O)c(=O)cc1[C@@H](N)CC2 | 0.26
41 | COc1ccccc1N | 1.18
42 | COc1ccc2[nH]c(CCc3nc4cc(OC)ccc4[nH]3)nc2c1 | 1.14
43 | NC(=O)/C=C/c1ccc2c(c1)OCO2 | 1.4

same assay, conditions: pH 1.0

Row | Compound | logD
44 | N#Cc1c[nH]c(=O)[nH]c1=O | -0.93
45 | COc1ccccc1OCC(=O)O | 0.98
46 | CS(=O)(=O)F | 0.55

same assay, conditions: pH 1.4

Row | Compound | logD
47 | Oc1cc(O)cc(O)c1 | 0.16

same assay, conditions: pH 3.0

Row | Compound | logD
48 | CC(=O)OCC1=C(C(=O)O)N2C(=O)C(NC(=O)CSc3cc(Cl)ccc3Cl)C2SC1 (centres undefined) | 1.66

same assay, conditions: pH 4.2

Row | Compound | logD
49 | COCCN(N=Nc1[nH]cnc1C(N)=O)C(C)(C)C | 1.14
50 | NC(=O)c1nc[nH]c1N=NN(CCO)Cc1ccccc1 | 0.99

same assay, conditions: pH 6.0

Row | Compound | logD
51 | Cc1cc(N(C)S(=O)(=O)c2ccc(N)cc2)no1 | 1.75

same assay, conditions: pH 7.0

Row | logD | Compound
52 | 2.35 | CCOC(=O)c1cccc([N+](=O)[O-])c1
53 | 0.5 | CS(=O)(=O)c1cccc([N+](=O)[O-])c1
54 | 0.27 | CC(=O)Oc1ccc(C(N)=O)cc1

Second part, the molecule before the results:

Row | Compound | logD
55 | CC(=O)c1ccc(C#N)cc1 | 1.22
56 | CNc1ncnc2ccsc12 | 1.43

same assay, conditions: pH 7.4

Row | Compound | logD
57 | CCN(CC)c1c(C)n(C)c(=O)n(-c2ccccc2)c1=O | 2.11
58 | CC(O)C(C)(C)C(O)C(=O)OCC1=CC[N+]2([O-])CCC(O)C12 (centres undefined) | -1.52
59 | CC(C)COCC1CNc2nc(N)[nH]c(=O)c2N1 (centres undefined) | 0.45
60 | CO/N=C/CCc1ccccc1 | 2.14
61 | CCN(CC)c1c(C)n(-c2ccccc2)c(=O)n(CC)c1=O | 2.78
62 | O=C1C=C(O)CCN1[C@@H]1O[C@H](CO)[C@@H](O)[C@H]1O | -2.28
63 | CO[C@H]1O[C@H](CO)[C@@H](O)[C@H](NC(=O)N(C)N=O)[C@H]1O | -1.45
64 | Cc1c(N(C)C)c(=O)n(C)c(=O)n1C | 0.99
65 | CC(CN1CC(=O)NC(=O)C1)N1CC(=O)NC(=O)C1 (centres undefined) | -1.74

same assay, conditions: pH 9.2

Row | Compound | logD
66 | CC(C)C#CN(C)C(C)C | 2.29

same assay, conditions: pH 11.0

Row | Compound | logD
67 | CCN(CC)CCc1cccnc1 | 1.23

same assay, conditions: pH 12.0

Row | Compound | logD
68 | CCCCC1CC(C(=O)NC(C(C)O)C2OC(SC)C(O)C(O)C2O)N(CC)C1 (centres undefined) | 1.76

same assay, conditions: pH 12.3

Row | Compound | logD
69 | CCCC1CNC(C(=O)NC(C(C)Br)C2OC(SC)C(O)C(O)C2O)C1 (centres undefined) | 1.77

same assay, conditions: pH 13.0

Row | Compound | logD
70 | CCCCN(CCCC)CC(O)c1ccccc1 (centres undefined) | 3.16
71 | CC1(C)N=C(N)N=C(N)N1c1ccc(OCC(=O)N2CCOCC2)cc1 | -1.18
72 | NCc1ccc([N+](=O)[O-])cc1 | 1.06
73 | COC(OC)OC | 0.25
74 | COc1ccc(Cc2cnc(N)nc2N)c(OC)c1OC | 1.52

Reference: the SangsterLogP compilation
